Source: patent publication US20220235006A1, “PYRIDINE DERIVATIVES AS TMEM16A MODULATORS FOR USE IN THE TREATMENT OF RESPIRATORY CONDITIONS” (TMEM16A LIMITED, priority 2019, published 2022)
Values after ≈ are worked out from the molar mass of the structure shown.

Columns and labels:
[1] = Kinetic solubility determination (high throughput); format: physicochemical; conditions: kinetic from dmso stock, sterile water, 5% DMSO, room temperature
[2] = Microsomal stability; format: in vitro ADME; conditions: human microsomes 0.5 mg/mL; 1 μM; 1 mM NADPH
Protocol: Microsomes (human) were obtained from Bioreclamation.
All Test and reference control compounds (raloxifene, diclofenac, terfenadine, propranolol, dextromethorphan and metoprolol) were dissolved to create a 100 μM stock (final concentrations; 91.5% Acetonitrile: 8.5% DMSO). Final test compound concentration in incubation was 1 μM (<0.1% DMSO).
Solution 1: 17.4 g potassium phosphate dibasic anhydrous (K2HPO4, 0.1 M) dissolved in 1 L deionised water. Solution 2: 13.6 g potassium phosphate monobasic anhydrous (KH2PO4, 0.1 M) dissolved in 1 L deionised water. pH7.4 with 2 mM magnesium chloride. NADPH (10 mM) is prepared in deionised water.
Microsomes (all species) were removed from the −80° C. thawed at 37° C. Microsomes were diluted in assay buffer to achieve a final protein concentration of 0.5 mg/mL and 1 mM NADPH.
The following procedure was completed on a Perkin Elmer Janus robotic platform in 96 well format: The microsomal incubation plate was transferred to a heater shaker at 300 rpm and solution heated to 37° C. for 10 min pre-warm. A no co-factor control at 0 and 45 min and one replicates of each test compound was included in every assay. Microsomes were incubated at 37° C., on a shaker set at 300 rpm throughout the assay. […] Samples were diluted 1:1 with water using the Janus Robot and analysed by […]

[3] = system: Cryopreserved hepatocytes (human); assay: Hepatic stability (cryopreserved hepatocytes); format: in vitro ADME; conditions: 1 μM
Protocol: Cryopreserved hepatocytes (human) were obtained from Bioreclamation.
Test compounds and reference controls (raloxifene, diclofenac, terenadine, propranolol, dextromethorphan and metoprolol) were dissolved in a 100 μM stock was prepared by diluting 5 μL of 4 mM (DMSO) in 195 μL of 50:50 DMSO:hepatocyte buffer. Final test compound concentration in incubation was 1 μM.
The hepatocyte buffer was prepared (Williams E media containing phenol red and Glutamax™, 15 mM HEPES, warmed to 37° C., pH7.4 with NaOH). Hepatocyte cells (all main species) were removed from liquid nitrogen, thawed in a waterbath, decanted into 50 mL of pre-warmed Cryopreserved Hepatocyte Recovery Media (LifeTechnologies) and centrifuged. Supernatant fraction was removed, cells were re-suspended in hepatocyte buffer and counted by trypan blue exclusion. Cell viability of >80% was required for all assays.
2 μL of 100 μM compound stock solution was added to relevant wells to initiate the incubation. A no cell control and two replicates of each test compound was included in every assay. Cells were incubated at 37° C., on a shaker set at 300 rpm. […] Samples were diluted 1:1 with water using the Janus Robot and analysed by LC-MS/MS.

[4] = Parallel artificial membrane permeability assay (PAMPA); format: in vitro ADME; conditions: 200 μM, 16 hours
Protocol: Parallel artificial membrane permeability assay (PAMPA) permeability data is a useful tool to predict passive permeability through biological lipid membranes. […] Passive permeability (>0.1 and <10×10^−6 cm/s) may still give good absorption properties.
All Test compounds were formulated in DMSO to 20 mM. Final concentration of all compounds in the assay was 200 μM with final DMSO concentration of 1%. The following reference controls were used: Antipyrine, Carbamazepine, Propranolol, Ranitidine and Ketoprofen.
The solutions were filtered and 150 μL transferred to a High Sensitivity 96 well UV plate. This was analysed by UV as the reference plate. A 200 μL sample of the 200 μM solution was transferred to the ‘donor’ plate of the PAMPA plon sandwich plate system. […] Donor and acceptor plates were sandwiched and kept in a humid environment at room temperature for 16 hours. On completion of the incubation the donor and acceptor plates were separated. 150 μL of solution was transferred from each of the donor and acceptor PAMPA sandwich plates into High Sensitivity 96 well UV plates for analysis by UV. Passive permeability (Pe 10^−6 cm/second) was determined for each compound tested. Control compounds were compared with historic and literature values to ensure assay functionality.

[5] = Caco-2 permeability assay; format: in vitro ADME; conditions: human, Caco-2, pH 7.4; for efflux ratio at 2 h, 10 μM: B-A/A-B; for Papp B→A at 2 h, 10 μM: basolateral to apical, pH7.4
Protocol: Caco2 permeability data provides a measure of a compound's permeability, and its potential for efflux by P-glycoprotein. […] This assay therefore provides an indication of which compounds are likely to be suitable for oral administration.
Caco-2 cells were purchased from ATCC and passaged to create a bank of cells. Cells were not used post 20 passages.
All test and reference compounds (metoprolol (passive permeability) and atenolol (pgp substrate)) were formulated in DMSO to 20 mM.
96-well plates were seeded with 9×10^3 Caco-2 cells/well in DMEM, 10% FBS, 1% NEAA, 1% pen/strep and maintained at 37° C., in a highly humidified atmosphere of 95% air and 5% CO2. Plates were ready for use on day 21.
10 mM DMSO stock test compounds were diluted to 1 mM in DMSO. Two replicates of each test compound were included in every assay. Final concentration of donor solution was 10 μM.
Assay transport buffer (25 mM HEPES/Hanks Balanced Salt Solution (HBSS), pH7.4) was prepared to wash the cells, create lucifer yellow (LY) stock solutions, receiver solutions and blanks for the transport assay. Final concentration of LY was 10 μM. Basolateral wells were treated with 250 μL of 10 μM dosing drug solution or 250 μL Transport Buffer. Apical wells were treated with 75 μL drug dosing solution or 75 μL Transport Buffer. The two plates were sandwiched together and cells were incubated with test compounds for 2 hours, shaking at 50 rpm, 37° C., 0% CO2.
A calibration curve was prepared for each compound; DMSO stock solutions were serially diluted from 300 μM to 100 μM, 30 μM, 10 μM, 3 μM, 1 μM and 0.3 μM in DMSO. 2 μL of each concentration was diluted into 198 μL of Sample Quench Solution (50% acetonitrile containing 500 nM tolbutamide). 50 μL of each calibration solution was then diluted in 50 μL Dosing Buffer (modified HBSS containing LY). Finally this plate was diluted 1:10 using a Janus robot in Robot Dilution Quench Solution (35% acetonitrile containing 250 nM tolbutamide).
Following a 2 h incubation, 50 μL of sample was removed from each well (apical and basolateral) and added to the T2 sample plate. Lucifer Yellow fluorescence was analysed using Spectrafluor Plus featuring the XFluor software to determine membrane integrity.
Following the fluorescence plate read, 50 μL Sample Quench Solution was then added to the T2 sample plate. Plates were diluted 1:10 and/or 1:100 into opaque 384-well plates using a Janus Robot. 1:100 dilution transfers were created sequentially directly from 1:10 dilutions. All dilutions were created using Robot Dilution Quench Solution (35% acetonitrile containing 250 nM tolbutamide). All samples were analysed by LC-MS/MS.

Row | solubility kinetic at 90 min [1] [µg/mL] | Human Microsome CIint [2] [µL/min/mg] | Human Hepatocyte CIint [3] [μL/min/million cells] | PAMPA Pe (pH 5.0) ([4]; pH 5.0) | PAMPA Pe (pH 6.2) ([4]; pH 6.2) | PAMPA Pe (pH 7.4) ([4]; pH 7.4) | efflux ratio at 2 h, 10 μM [5] | Papp B→A at 2 h, 10 μM [5] [×10⁻⁶ cm/s] | Compound
1 | 10 (≈ 24.9 µM) | 51.0 | 15.6 | – | – | – | – | – | CC(C)(C)NC(=O)c1cc(NC(=O)Cc2cc(O)c(C(C)(C)C)cc2F)ccn1 [91 of PCT/GB2019/050209, reference compound]
2 | 37 (≈ 93.8 µM) | 32.8 | 24.1 | 30.9 ×10^−4 cm/s | 38.4 ×10^−4 cm/s | 36.4 ×10^−4 cm/s | – | – | CC(C)(C#N)NC(=O)c1cc(NC(=O)Cc2ccc(C(C)(C)C)c(O)c2)ccn1 [93.4 of PCT/GB2019/050209, reference compound]
3 | 35 (≈ 87.8 µM) | – | – | – | – | – | 0.9 | 2.5 | CC(C#N)NC(=O)c1cc(NC(=O)Cc2cc(O)c(C(C)(C)C)cc2F)ccn1 (centres unmarked) [Example 1.3]
4 | 152 (≈ 334 µM) | – | – | – | – | – | 1.8 | 5.7 | CC(C)(O)c1cc(F)c(CC(=O)Nc2ccnc(C(=O)NC3(C(F)(F)F)CC3)c2)cc1O [Example 2, 4-[[2-[2-Fluoro-5-hydroxy-4-(1-hydroxy-1-methyl-ethyl)phenyl]acetyl]amino]-N-[1-(trifluoromethyl)cyclopropyl]pyridine-2-carboxamide]
5 | 142 (≈ 302 µM) | – | – | – | – | – | 2.4 | 5.3 | CC(C)(CO)c1cc(F)c(CC(=O)Nc2ccnc(C(=O)NC3(C(F)(F)F)CC3)c2)cc1O [Example 2.6, 4-[[2-[2-Fluoro-5-hydroxy-4-(2-hydroxy-1,1-dimethyl-ethyl)phenyl]acetyl]amino]-N-[1-(trifluoromethyl)cyclopropyl]pyridine-2-carboxamide]
6 | 116 (≈ 247 µM) | – | – | – | – | – | 1 | – | CCC(C)(O)c1cc(F)c(CC(=O)Nc2ccnc(C(=O)NC3(C(F)(F)F)CC3)c2)cc1O (centres unmarked) [Example 2.11, 4-[[2-[2-Fluoro-5-hydroxy-4-(1-hydroxy-1-methyl-propyl)phenyl]acetyl]amino]-N-[1-(trifluoromethyl)cyclopropyl]pyridine-2-carboxamide]
7 | 67 (≈ 139 µM) | – | – | – | – | – | 2.6 | 6.1 | O=C(Cc1cc(O)c(C2(CO)CCC2)cc1F)Nc1ccnc(C(=O)NC2(C(F)(F)F)CC2)c1 [Example 2.13, 4-[[2-[2-Fluoro-5-hydroxy-4-[1-(hydroxymethyl)cyclobutyl]phenyl]acetyl]amino]-N-[1-(trifluoromethyl)cyclopropyl]pyridine-2-carboxamide]
8 | 120 (≈ 248 µM) | – | – | – | – | – | 2.3 | 5.5 | CC(C)(CCO)c1cc(F)c(CC(=O)Nc2ccnc(C(=O)NC3(C(F)(F)F)CC3)c2)cc1O [Example 11, 4-[[2-[2-Fluoro-5-hydroxy-4-(3-hydroxy-1,1-dimethyl-propyl)phenyl]acetyl]amino]-N-[1-(trifluoromethyl)cyclopropyl]pyridine-2-carboxamide]
9 | 90 (≈ 185 µM) | – | – | – | – | – | 2.8 | 4.9 | CC(C)(CO)c1cc(Cl)c(CC(=O)Nc2ccnc(C(=O)NC3(C(F)(F)F)CC3)c2)cc1O [Example 14, 4-[[2-[2-Chloro-5-hydroxy-4-(2-hydroxy-1,1-dimethyl-ethyl)phenyl]acetyl]amino]-N-[1-(trifluoromethyl)cyclopropyl]pyridine-2-carboxamide]
10 | 154 (≈ 331 µM) | – | – | – | – | – | 2.8 | 6 | Cc1cc(C(C)(C)CO)c(O)cc1CC(=O)Nc1ccnc(C(=O)NC2(C(F)(F)F)CC2)c1 [Example 14.1, 4-[[2-[5-Hydroxy-4-(2-hydroxy-1,1-dimethyl-ethyl)-2-methyl-phenyl]acetyl]amino]-N-[1-(trifluoromethyl)cyclopropyl]pyridine-2-carboxamide]
11 | 164 (≈ 351 µM) | – | – | – | – | – | 19.8 | 7.2 | CC(C)(CO)c1cc(Cl)c(CC(=O)Nc2ccnc(C(=O)NC3(C(F)F)CC3)c2)cc1O [Example 15.3, 4-[[2-[2-Chloro-5-hydroxy-4-(2-hydroxy-1,1-dimethyl-ethyl)phenyl]acetyl]amino]-N-[1-(difluoromethyl)cyclopropyl]pyridine-2-carboxamide]
12 | 292 (≈ 573 µM) | – | – | – | – | – | 20.7 | 7.8 | O=C(Cc1cc(O)c(C(CO)C(F)(F)F)cc1F)Nc1ccnc(C(=O)NC2(C(F)(F)F)CC2)c1 (centres unmarked) [Example 17, 4-[[2-[2-Fluoro-5-hydroxy-4-[2,2,2-trifluoro-1-(hydroxymethyl)ethyl]phenyl]acetyl]amino]N-[1-(trifluoromethyl)cyclopropyl]pyridine-2-carboxamide]
